Experimental data from US6448201B1, “Benzoylcyclohexanediones and benzoylpyrazoles, their preparation, and their use as herbicides and plant growth regulators” (Aventis CropScience GmbH, priority 1999, dated 2002).

## CS(=O)(=O)c1ccc(C(=O)C2C(=O)CCCC2=O)c(Cl)c1OCc1cc(-c2ccccc2)no1 [1.70, 2-(2-Chloro-3-(3-phenylisoxazol-5-yl)methoxy-4-methylsulfonylbenzoyl)cyclohexane-1,3-dione]
  melting point: 72 to 78 °C
